Tests used:
[1] = system: rat primary septal neuron culture; assay: Measurement of acetylcholine (ACh) release in the rat primary septal neuron culture system in the presence of NGF; format: cell-based; details: rat primary septal neurons, with NGF, one day after compound addition, HPLC
Excerpt: Measurement of Acetylcholine (ACh) Release in the Rat Primary Septal Neuron Culture System in the Presence of NGF
(1) Rat Primary Septal Neuron Culture
The septal area was isolated from Sprague-Dawley (SD) rats (Charles River Laboratories Japan, Inc.) at a fetal age of 18 days, and cultured. Specifically, fetuses were aseptically removed from pregnant rats under isoflurane anesthesia. The brain was extracted from each fetus, and immersed in ice-cooled L-15 medium (11415-064. Thermo Fisher Scientific), The septal area was dissected from the extracted brain under a stereoscopic microscope. The dissected septal area was subjected to enzyme treatment in an enzyme solution containing 0.25% trypsin (15050-065. Thermo Fisher Scientific) and 0.01% DNase (D5025-1.50KU, Sigma) at 37° C. for 30 minutes, thereby dispersing the cells. In this case, the enzyme reaction was terminated by adding inactivated horse serum (26050-088. Thermo Fisher Scientific). The enzyme-treated solution was centrifuged at 1000 rpm for 3 minutes, and the supernatant was removed. A medium in an amount of 10 mL was added to the obtained cell mass. […]
One day after compound addition, an amount of ACh release was measured by HPLC in the following manner. […]

[2] = system: Choline acetyltransferase (ChAT) mRNA; assay: Measurement of choline acetyltransferase (ChAT) mRNA expression levels in the rat septal area; format: in vivo; details: SD male rats, oral, 10 mg/kg, medial septum 24 hours after administration, qPCR
Procedure: Measurement of Choline Acetyltransferase (ChAT) mRNA Expression Levels in the Rat Septal Area
(§1) (1) Compound Administration
In this study, SD male rats (Charles River Laboratories Japan, Inc. with a body weight of about 250 to 350 g were used. The compound was dissolved in 0.01 mol/L hydrochloric acid, and orally administered.
At 24 hours after the administration of the compound, the whole brain tissue was collected under pentobarbital anesthesia. The medial septum was isolated from whole brain on ice and frozen with liquid nitrogen, and them stored at −80° C.
(3) Measurement of ChAT […] Expression Levels
For RNA purification, RNeasy Plus Mini Kit (#74136: QIAGEN) was used in this study. RNA purification was performed by the method described in the kit, After RNA purification, the total RNA concentration was measured by using QIAxpert Instrument (QIAGEN). cDNA was synthesized using SuperScript® VILO™ cDNA. Synthesis Kit (#11754: Thermo Fisher Scientific). The synthesis of cDNA was performed by the method described in the kit. […] Quantitative polymerase chain reaction (qPCR) was conducted using ABI PRISM® 7900HT (Thermo Fisher Scientific) by a fluorescence probe method. […]

[3] = system: acetylcholine (ACh) in cerebrospinal fluid (CSF); assay: Measurement of acetylcholine (ACh) in rat cerebrospinal fluid (CSF); format: in vivo; details: Fischer 344 male rats, oral once a day at 10 mg/kg for three days, CSF 24 hours after administration, LC-MS
Procedure: Measurement of Acetylcholine (ACh) in Rat Cerebrospinal Fluid (CSF)
Thus, the changes in acetylcholine in CSF were measured in order to determine the changes in intracerebral acetylcholine by the test compounds.
(2) Compound Administration
In this study Fischer 344 male rats (Charles River Laboratories Japan, Inc.) with a body weight of about 150 to 250 g were used. The test compounds were orally administered to the rats once a day at 10 mg/kg for three days. The vehicle used was 0.01 mol/L hydrochloric acid.
At 24 hours after the administration of the vehicle and the test compounds, the CSF was collected from cisterna magna in a tube containing AchE inhibitors under pentobarbital anesthesia. The collected CSF was centrifuged at 3500×g at 4° C. for 10 minutes and the supernatant was collected. The collected supernatant was frozen with liquid nitrogen, and then stored at −80° C.
(4) Measurement of Ach by LC-MS
To 10 μL of the CSF was added 50 μL of acetylcholine-d9 chloride (ACh-d9) at a final concentration of 0.34 nmol/L as an internal standard. […] The supernatant was collected and subjected to LC/MS ([…]), and Ach was detected as precursor ion at m/z 146.050 and as product ion at m/z 87.071 and ACh-d9 as an internal standard was detected as precursor ion at m/z 155.088 and as product ion at m/z 87.000.

[4] = system: ChAT positive cells of the medial septal area; assay: Evaluation in human tau P301S transgenic mouse (ChAT positive cells, medial septal area); format: in vivo; details: human tau P301S transgenic mice, oral once a day for three months (four- to seven-month-old), Dose: 5 mg/kg, mean±SEM, # significant vs vehicle (83.0 ± 5.8)
Excerpt: Evaluation in Human Tau P301S Transgenic Mouse
as §1
In this study, the test compounds were orally administered to human tau P301S transgenic mice once a day for three months from four-month-old to seven-month-old. The vehicle used was 0.01 mol/L hydrochloric acid.
At the initial day of the administration (four-month-old) and at the next day of the final administration, mice of vehicle administration group and test compound administration group were anesthetized under pentobarbital (50 mg/kg, i.p.) and perfused with PBS. After the perfusion, the forebrain including the medial septal area was collected and fixed with 4% parafomaldehyde.
(3) Preparation of Brain Coronal Frozen Section
The collected forebrain including the medial septal area was immersed and shaken overnight in 4% paraformaldehyde. […]
The prepared brain coronal frozen sections were stained with DAB (DAB PEROXIDASE SUBSTRATE KIT (Vector, SK-4100)) using a ChAT antibody (Santa Cruz, SC-20672) as a primary antibody. The section image including the medial septal area as shown in “The mouse Brain in stereotaxic coordinates” (COMPACT THIRD EDITION, Keith B. J. Franklin & George Paxinos) was taken by an all-in-one fluorescence microscope (KEYENCE, […]) and […] positive cells around the major axis of the medial septal area were counted by BZ analysis software (KEYENCE). […] Data are expressed as the mean±SEM. […]

[5] = system: ChAT positive cells of the medial septal area; assay: Fimbria-fornix lesioned rat model: ChAT positive cells of the medial septal area; format: in vivo; details: fimbria-fornix lesioned rats, oral once a day after the operation, % of sham-operated group, mean±SEM, # significant vs vehicle (38.4 ± 5.0)
Procedure: (§2) Neuroprotective and Restorative Effect on Cholinergic Neurons Using Fimbria-Formix Lesioned Rat Model
(§3) (1) Preparation of Fimbria-Fornix Lesioned Rat Model
(§4) In this studs Sprague-Dawley male rats (Charles River Laboratories Japan, Inc.) with a body weight of about 250 to 350 g were used. The rat was anesthetized under the combination of three drugs: midazolam (2 mg/kg s.c.), medetomidine hydrochloride (0.15 mg/kg s.c.) and butorphanol tartrate (2.5 mg/kg s.c.) and fixed with a brain stereotaxis apparatus (Narishige Co., Ltd.). The cranial was exposed and a hole with 5 mm width was drilled in the skull from the median line 2 mm posterior to Bregma. A razor with 4 mm width was pierced into the Bregma in 5.5 mm depth to cut fimbria-fornix. […]
(§5) The prepared brain coronal frozen sections were stained with DAB (DAB PEROXIDASE SUBSTRATE KIT (Vector, SK-4100)) using a ChAT antibody (Santa Cruz, SC-20672) or a VAChT antibody (Merck Millipore, ABN100) as a primary antibody. The section image including the medial septal area or hippocampus as shown in “The mouse Brain in stereotaxic coordinates” (COMPACT THIRD EDITION, Keith B. J. Franklin & George Paxinos) was taken by an all-in-one fluorescence microscope (KEYENCE, BZ-X710) and ChAT positive cells of the medial septal area or optical density (OD) in hippocampal VAChT were measured by BZ analysis software (KEYENCE). […] Data are expressed as the mean±SEM. […]

[6] = system: hippocampal vesicular acetylcholine transporter (VAChT); assay: Fimbria-fornix lesioned rat model: optical density in hippocampal VAChT; format: in vivo; details: fimbria-fornix lesioned rats, oral once a day after the operation, % of sham-operated group, mean±SEM, # significant vs vehicle (19.5 ± 6.4)
Procedure: as §2, §3, §4, §5

CN1CCc2c(sc3nc4n(c(=O)c23)-c2sccc2C(=O)N(C)C4)C1 [Reference Example 1, 5,10-dimethyl-5,6,9,10,11,12-hexahydropyrido[4″,3″:4′,5′]thieno[2′,3′:4,5]pyrimido[1,2-a]thieno[3,2-f][1,4]diazepine-4,13-dione]
compound concentration showing a 20% increase from the ACh concentration in the buffer of the control group [1]: 0.1 µM | percentage of ChAT mRNA expression levels increased from the vehicle administration group [2]: 56.4% | ACh concentration in CSF, percentage (% of control) versus vehicle administration group [3]: 156.8% | Ratio (%) of number of ChAT positive cells compared to that in the initial administration [4]: 105.3 ± 4.3^# % | Number of ChAT positive cells (%) in test compound administration group [5]: 74.1 ± 9.3^# % | OD in hippocampal VAChT (%) in test compound administration group [6]: 66.1 ± 14.2^# %

— patent US11420980B2, “Salt of pentacyclic compound and crystal thereof” (Eisai R&D Management Co., Ltd., priority 2019, dated 2022)
